Values after ≈ are worked out from the molar mass of the structure shown. Where two headings read alike, the source gives them in different places.
Columns and labels:
[1] = tested on: Pseudomonas aeruginosa cystic fibrosis isolate 3198; experiment: MIC vs cystic fibrosis isolate of P. aeruginosa 3198 (sensitive to most antibacterials); format: cell-based; settings: strain 3198, Sensitive, LpxC inhibitors, MIC key class
Description: (§1) Bacterial isolates were cultivated from −70° C. frozen stocks by two consecutive overnight passages at 35° C. in ambient air on 5% blood agar (Remel, Lenexa, Kans.). Clinical isolates tested were from a collection composed of isolates collected during clinical trials and recent clinical isolates obtained from various geographically diverse hospitals in the US. Quality control and primary panel strains were from the American Type Culture Collection (ATCC; Rockville, Md.), with the exception of P. aeruginosa PAO200, a strain with a deletion of the mexABoprM genes that was received from Dr. H. Schweizer.
(§2) Minimum Inhibitory Concentrations (MICs) were determined by the broth microdilution method in accordance with the National Committee for Clinical Laboratory Standards (NCCLS) guidelines. In brief, organism suspensions were are adjusted to a 0.5 McFarland standard to yield a final inoculum between 3×10^5 and 7×10^5 colony-forming units (CFU)/mL. Drug dilutions and inocula were made in sterile, cation adjusted Mueller-Hinton Broth (Remel). An inoculum volume of 100 μl was added to wells containing 100 μl of broth with 2-fold serial dilutions of drug. All inoculated microdilution trays were incubated in ambient air at 35° C. for 18-24 hours. Following incubation, the lowest concentration of the drug that prevented visible growth was recorded as the MIC.

[2] = tested on: Pseudomonas aeruginosa cystic fibrosis isolate 3224; experiment: MIC vs cystic fibrosis isolate of P. aeruginosa 3224; format: cell-based; settings: strain 3224, Tobra R, LpxC inhibitors, MIC key class
Description: as §1, §2

Serratia marcescens = experiment: MIC vs enteric organisms: Serratia marcescens; format: cell-based; settings: S. marc., MIC key class
Description: as §1, §2

Klebsiella oxytoca = experiment: MIC vs enteric organisms: Klebsiella oxytoca; format: cell-based; settings: K. oxy., MIC key class
Description: as §1, §2

Escherichia coli = experiment: MIC vs enteric organisms: Escherichia coli clinical isolates; format: cell-based; settings: Escherichia coli, MIC key class, read-out: MIC
Description: as §1, §2

E. coli 25922 = experiment: MIC broth microdilution, standard panel: E. coli 25922; format: cell-based; settings: Escherichia coli, standard panel of organisms
Description: as §1, with “Schweizer. […] Strain Z61 (ATCC 35151) is also hypersusceptible to antibacterials. It is thought that the hypersusceptibility of this strain is the result of increased permeability of its outer membrane (Angus B L et al, Antimicrobial Agents and Chemotherapy 1982 21,299-309: Outer membrane permeability in Pseudomonas aeruginosa: Comparison of a wild-type with an antibacterial-supersusceptible mutant).” for “Schweizer.”
as §2, with “MIC. Performance of the assay was monitored by the use of laboratory quality-control strains against tobramycin, that has a defined MIC spectrum, in accordance with NCCLS guidelines.” for “MIC.”

[3] = tested on: Pseudomonas aeruginosa cystic fibrosis isolate 2196; experiment: MIC vs cystic fibrosis isolate of P. aeruginosa 2196 (resistant to ciprofloxacin); format: cell-based; settings: strain 2196, Cipro R, LpxC inhibitors, MIC key class
Description: as §1, §2

[4] = tested on: Pseudomonas aeruginosa cystic fibrosis isolate 1145; experiment: microbe, parasite or virus in culture; format: cell-based; settings: strain 1145, MDR, LpxC inhibitors, MIC key class, read-out: MIC
Description: as §1, §2

[5] = tested on: Pseudomonas aeruginosa cystic fibrosis isolate 3206; experiment: microbe, parasite or virus in culture; format: cell-based; settings: strain 3206, MDR, LpxC inhibitors, MIC key class, read-out: MIC
Description: as §1, §2

Klebsiella pneumoniae = experiment: MIC vs enteric organisms: Klebsiella pneumoniae; format: cell-based; settings: K. pneu., MIC key class
Description: as §1, §2

P. aeruginosa 27853 = experiment: MIC broth microdilution, standard panel: P. aeruginosa 27853; format: cell-based; settings: Pseudomonas aeruginosa, standard panel of organisms
Description: as §1, with “Schweizer. […] Strain Z61 (ATCC 35151) is also hypersusceptible to antibacterials. It is thought that the hypersusceptibility of this strain is the result of increased permeability of its outer membrane (Angus B L et al, Antimicrobial Agents and Chemotherapy 1982 21,299-309: Outer membrane permeability in Pseudomonas aeruginosa: Comparison of a wild-type with an antibacterial-supersusceptible mutant).” for “Schweizer.”
as §2, with “MIC. Performance of the assay was monitored by the use of laboratory quality-control strains against tobramycin, that has a defined MIC spectrum, in accordance with NCCLS guidelines.” for “MIC.”

Proteus mirabilis = experiment: MIC vs enteric organisms: Proteus mirabilis; format: cell-based; settings: P. mir., MIC key class
Description: as §1, §2

[6] = tested on: Stenotrophomonas maltophilia; experiment: MIC vs non-fermenting organisms: Stenotrophomonas maltophilia; format: cell-based; settings: Stenotrophomonas maltophilia, S. malt.; MIC key class; read-out: MIC
Description: as §1, §2

[7] = tested on: Pseudomonas aeruginosa cystic fibrosis isolate 3232; experiment: MIC vs cystic fibrosis isolate of P. aeruginosa 3232 (Ceftaz. R); format: cell-based; settings: strain 3232, Ceftaz. R, LpxC inhibitors, MIC key class
Enterobacter aerogenes = experiment: MIC vs enteric organisms: Enterobacter aerogenes; format: cell-based; settings: Klebsiella aerogenes; E. aer.; MIC key class
Description: as §1, §2

Enterobacter cloacae = experiment: MIC vs enteric organisms: Enterobacter cloacae; format: cell-based; settings: E. clo., MIC key class
Description: as §1, §2

[8] = tested on: P. aeruginosa PAO200 mexAB; experiment: MIC broth microdilution, standard panel: P. aeruginosa PAO200 mexAB; format: cell-based; settings: Pseudomonas aeruginosa, PAO200MEXAB, read-out: MIC P. aeruginosa PAO200 mexAB
Description: as §1, with “Schweizer. […] Strain Z61 (ATCC 35151) is also hypersusceptible to antibacterials. It is thought that the hypersusceptibility of this strain is the result of increased permeability of its outer membrane (Angus B L et al, Antimicrobial Agents and Chemotherapy 1982 21,299-309: Outer membrane permeability in Pseudomonas aeruginosa: Comparison of a wild-type with an antibacterial-supersusceptible mutant).” for “Schweizer.”
as §2, with “MIC. Performance of the assay was monitored by the use of laboratory quality-control strains against tobramycin, that has a defined MIC spectrum, in accordance with NCCLS guidelines.” for “MIC.”

Alcaligenes xylosoxidans = experiment: MIC vs non-fermenting organisms: Alcaligenes xylosoxidans; format: cell-based; settings: Achromobacter xylosoxidans; Alcal. xyl; MIC key class
Description: as §1, §2

Burkholderia cepacia = experiment: MIC vs non-fermenting organisms: Burkholderia cepacia; format: cell-based; settings: Burkholderia cepacia, B. cepacia; MIC key class; read-out: MIC
Description: as §1, §2

[9] = tested on: Pseudomonas aeruginosa cystic fibrosis isolate 3236; experiment: MIC vs cystic fibrosis isolate of P. aeruginosa 3236 (sensitive to most antibacterials); format: cell-based; settings: strain 3236, Sensitive, LpxC inhibitors, MIC key class
Description: as §1, §2

S. aureus 29213 = experiment: MIC broth microdilution, standard panel: S. aureus 29213; format: cell-based; settings: Staphylococcus aureus, standard panel of organisms
Description: as §1, with “Schweizer. […] Strain Z61 (ATCC 35151) is also hypersusceptible to antibacterials. It is thought that the hypersusceptibility of this strain is the result of increased permeability of its outer membrane (Angus B L et al, Antimicrobial Agents and Chemotherapy 1982 21,299-309: Outer membrane permeability in Pseudomonas aeruginosa: Comparison of a wild-type with an antibacterial-supersusceptible mutant).” for “Schweizer.”
as §2, with “MIC. Performance of the assay was monitored by the use of laboratory quality-control strains against tobramycin, that has a defined MIC spectrum, in accordance with NCCLS guidelines.” for “MIC.”

[10] = tested on: Pseudomonas aeruginosa cystic fibrosis isolate 3317; experiment: MIC vs cystic fibrosis isolate of P. aeruginosa 3317 (resistant to aztreonam); format: cell-based; settings: strain 3317, Aztr. R, LpxC inhibitors, MIC key class
Description: as §1, §2

[11] = tested on: Acinetobacter calcoaceticus; experiment: MIC vs non-fermenting organisms: Acinetobacter calcoaceticus; format: cell-based; settings: Acinet. calc., MIC key class
Description: as §1, §2

[12] = tested on: non-CF clinical isolates of P. aeruginosa; experiment: MIC vs non-CF clinical isolates of P. aeruginosa; format: cell-based; settings: Pseudomonas aeruginosa, MIC key class
Description: as §1, with “Schweizer. […] Strain Z61 (ATCC 35151) is also hypersusceptible to antibacterials. It is thought that the hypersusceptibility of this strain is the result of increased permeability of its outer membrane (Angus B L et al, Antimicrobial Agents and Chemotherapy 1982 21,299-309: Outer membrane permeability in Pseudomonas aeruginosa: Comparison of a wild-type with an antibacterial-supersusceptible mutant).” for “Schweizer.”
as §2, with “MIC. Performance of the assay was monitored by the use of laboratory quality-control strains against tobramycin, that has a defined MIC spectrum, in accordance with NCCLS guidelines.” for “MIC.”

P. aeruginosa LpxC = biological target: T1, P. aeruginosa LpxC (Pseudomonas aeruginosa, UniProt P47205); experiment: P. aeruginosa LpxC Inhibition Assay; format: biochemical; settings: 2 nM P. aeruginosa LpxC, 90 min, room temperature; read-out: IC50 (nM), Enzyme inhibitory activity
T1 sequence (P47205 1-303): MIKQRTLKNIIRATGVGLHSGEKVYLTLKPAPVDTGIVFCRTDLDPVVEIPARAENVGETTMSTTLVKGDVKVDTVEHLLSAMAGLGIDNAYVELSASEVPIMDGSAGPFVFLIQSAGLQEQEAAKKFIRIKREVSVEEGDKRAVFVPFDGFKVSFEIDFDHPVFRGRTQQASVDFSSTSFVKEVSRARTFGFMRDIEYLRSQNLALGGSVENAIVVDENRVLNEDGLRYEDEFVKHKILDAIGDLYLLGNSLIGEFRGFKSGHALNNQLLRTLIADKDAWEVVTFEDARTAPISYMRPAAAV
Description: The assay followed the general method of Hyland et al (Journal of Bacteriology 1997 179, 2029-2037: Cloning, expression and purification of UDP-3-O-acyl-GlcNAc deacetylase from Pseudomonas aeruginosa: a metalloamidase of the lipid A biosynthesis pathway) and the radiolabeling procedure is according to Kline et al. supra. Briefly, samples were incubated with 2 nM P. aeruginosa LpxC and 150 nM [3H-Ac]-UDP-3-OR-3-hydroxydecanoyl)-GlcNAc in a total volume of 50 uL for 90 min at room temperature. Reactions were carried out in 96-well polypropylene plates in 50 mM sodium phosphate buffer, pH 7.5, containing 1 mg/mL BSA. Reactions were stopped by the addition of 180 uL of a 3% suspension of activated charcoal powder in 100 mM sodium acetate, pH 7.5. Supernatants were clarified by centrifugation. A portion of the clarified supernatant, containing the enzymatically released [3H]-acetate, was transferred to opaque white 96-well plates containing scintillation fluid. The radioactivity was measured in a Perkin-Elmer/Wallac Trilux Microbeta counter.

NC[C@H](NC(=O)c1ccc(C#Cc2ccccc2)cc1)C(=O)NO [Example 366, N-[(1S)-1-(aminomethyl)-2-(hydroxyamino)-2-oxoethyl]-4-(phenylethynyl)benzamide]
MIC [1]: < 6.25 µg/mL | MIC [2]: < 6.25 µg/mL | MIC (Serratia marcescens): < 6.25 µg/mL | MIC (Klebsiella oxytoca): 6.25 to 50 µg/mL (≈ 19.3 to 155 µM) | MIC (Escherichia coli; E. coli 1619): < 6.25 µg/mL | MIC (Escherichia coli; E. coli 2788): < 6.25 µg/mL | MIC (E. coli 25922): < 6.25 µg/mL | MIC [3]: < 6.25 µg/mL | MIC [4]: < 6.25 µg/mL | MIC [5]: < 6.25 µg/mL | MIC (Klebsiella pneumoniae): 6.25 to 50 µg/mL (≈ 19.3 to 155 µM) | MIC (P. aeruginosa 27853): < 6.25 µg/mL | MIC (Proteus mirabilis): < 6.25 µg/mL | MIC [6]: 6.25 to 50 µg/mL (≈ 19.3 to 155 µM) | MIC [7]: < 6.25 µg/mL | MIC (Enterobacter aerogenes): > 50 µg/mL | MIC (Enterobacter cloacae): < 6.25 µg/mL | MIC [8]: < 6.25 µg/mL | MIC (Alcaligenes xylosoxidans): < 6.25 µg/mL | MIC (Burkholderia cepacia): 6.25 to 50 µg/mL (≈ 19.3 to 155 µM) | MIC [9]: < 6.25 µg/mL | MIC (S. aureus 29213): > 50 µg/mL | MIC [10]: < 6.25 µg/mL | MIC [11]: > 50 µg/mL | MIC ([12]; P. aer 12307): < 6.25 µg/mL | MIC ([12]; P. aer 27853): < 6.25 µg/mL | MIC ([12]; P. aer psa-6b): 6.25 to 50 µg/mL (≈ 19.3 to 155 µM) | MIC ([12]; PAO1, P. aer. PAO1): < 6.25 µg/mL

C[C@@H](O)[C@H](NC(=O)c1ccc(C#Cc2ccc(NC(=O)CNc3cnccn3)cc2)cc1)C(=O)NO [Example 860, N-{(1S,2R)-2-hydroxy-1-[(hydroxyamino)carbonyl]propyl}-4-[(4-{[(pyrazin-2-ylamino)acetyl]amino}phenyl)ethynyl]benzamide]
MIC (E. coli 25922): < 6.25 µg/mL | MIC (P. aeruginosa 27853): < 6.25 µg/mL | MIC [8]: < 6.25 µg/mL | IC50 (P. aeruginosa LpxC): < 100 nM | MIC (S. aureus 29213): > 50 µg/mL

Source: patent US7358359B2, “Antibacterial agents” (University of Washington, priority 2003, dated 2008)
